Laboratory results: US6140338A, “Chemokine receptor antagonists” (Banyu Pharmaceutical, Co., Ltd., priority 1996, dated 2000)

T1: chemokine receptor CCR3 (Homo sapiens, UniProt P51677)
T1 construct: expressed in transfected cells
T1 sequence (P51677 1-355): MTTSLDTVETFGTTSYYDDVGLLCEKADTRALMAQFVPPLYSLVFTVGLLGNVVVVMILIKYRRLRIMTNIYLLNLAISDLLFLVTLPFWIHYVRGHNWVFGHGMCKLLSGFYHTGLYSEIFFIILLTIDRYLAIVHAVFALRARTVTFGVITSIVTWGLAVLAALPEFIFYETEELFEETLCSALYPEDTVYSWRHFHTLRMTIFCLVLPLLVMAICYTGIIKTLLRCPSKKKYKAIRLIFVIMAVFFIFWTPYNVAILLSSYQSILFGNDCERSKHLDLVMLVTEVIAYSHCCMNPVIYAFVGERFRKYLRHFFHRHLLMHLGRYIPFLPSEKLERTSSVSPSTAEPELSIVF

T2: human chemokine receptor CCR1 (Homo sapiens, UniProt P32246)
T2 construct: expressed in transfected cells
T2 sequence (P32246 1-355): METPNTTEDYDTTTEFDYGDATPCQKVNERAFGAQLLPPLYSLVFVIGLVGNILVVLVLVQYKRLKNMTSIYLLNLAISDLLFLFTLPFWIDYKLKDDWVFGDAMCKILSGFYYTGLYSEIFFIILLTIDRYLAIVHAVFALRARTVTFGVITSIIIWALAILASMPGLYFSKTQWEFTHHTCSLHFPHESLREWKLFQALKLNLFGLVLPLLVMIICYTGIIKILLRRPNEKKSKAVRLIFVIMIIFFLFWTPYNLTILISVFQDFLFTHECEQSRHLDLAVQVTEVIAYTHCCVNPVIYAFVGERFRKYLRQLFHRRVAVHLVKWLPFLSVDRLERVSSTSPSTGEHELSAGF


Key:
[1] = biological target: T1, chemokine receptor CCR3; assay: Inhibitory activity against binding to the chemokine receptor CCR3 ([125I]Eotaxin binding, CHO cells); settings: 50 pM [125I]Eotaxin, 90 minutes, 37° C, pH 7.4, CHO cells expressing CCR3; read-out: 50% inhibitory concentration (IC50 value) against [125I]Eotaxin binding
Method: Further, an expression vector of a gene which codes chemokine receptor CCR3 was transfected to CHO cell by using lipofectamine to obtain a stable cell strain resistant against 0.5 mg/ml of G418. The stable cell strain, 50 pM[^125 I]Eotaxin (2000 Ci/mmol, manufactured by Amersham) and a test compound were suspended in 0.2 ml of Krebs-Ringer/0.1% bovine serum albumin/0.1% glucose (pH 7.4) and incubated for 90 minutes at a temperature of 37° C. Then, it was subjected to filtration by means of a glass filter GF/C which was preliminarily impregnated in 1% polyethyleneimine, and washed with 1 ml of Krebs-Ringer/0.1% bovine serum albumin/0.1% glucose (pH 7.4), whereby radio activity on the glass filter was measured. The binding affinity to the chemokine receptors CCR3 was shown as a 50% inhibitory concentration (IC50 value) of the compounds of the present invention against [^125 I]Eotaxin binding.

[2] = biological target: T2, human chemokine receptor CCR1; assay: Inhibitory activity against binding to the chemokine receptor CCR1 ([125I]MIP-1 alpha binding, CHO cells); settings: 50 pM [125I]MIP-1 alpha, 90 minutes, 37° C, pH 7.4, CHO cells expressing CCR1; read-out: 50% inhibitory concentration (IC50 value) against [125I]MIP-1 alpha binding
Method: cDNAs which code human chemokine receptor CCR1 was subcloned to Hind III/Xba I part of the expression vector pRc/CMV (Invitrogen) to prepare pRc/CMV CCR1. Then, pRc/CMV CCR1 was transfected to CHO cells by using lipofectamine (GIBCO) to obtain a stable cell strain resistant against 0.5 mg/ml of G418.
The stable cell strain, 50 pM[^125 I]MIP-1 alpha (2000 Ci/mmol, manufactured by New England Nuclear) and a test compound were suspended in 0.2 ml of Krebs-Ringer/0.1% bovine serum albumin/0.1% glucose (pH 7.4), and incubated for 90 minutes at a temperature of 37° C. Then, it was subjected to filtration by means of a glass filter GF/C which was preliminarily impregnated in 1% of polyethyleneimine, and washed with 1 ml of Krebs-Ringer/0.1% bovine serum albumin/0.1% glucose (pH 7.4), whereby radio activity on the glass filter was measured. The binding affinity to the chemokine receptors CCR1 was shown as a 50% inhibitory concentration (IC50 value) of the compound of the present invention against [^125 I]MIP-1 alpha binding.

[3] = system: CCR3; assay: CCR3 antagonist activities (Eotaxin-induced intracellular calcium increase in human eosinophils); type: cell-based; settings: 41 nM compound 5 minutes before agonist Eotaxin (10 nM), Fura2
Method: By using human eosinophil which stably express CCR3, the activity of the compounds of the present invention to intracellular calcium concentration was measured by the following method. […] of Fura2 acetoxymethyl ester (produced by Dojin Kagaku Laboratories) was added to eosinophils and incubated for 30 minutes at a temperature of 37° C. Then, the mixture was excited by irradiation with light at 340 nm and 380 nm, fluorescence at 500 nm was measured, 340/380 ratio was monitored, thereby intracellular calcium concentration was calculated.

[4] = system: chemokine receptor CCR1; assay: Activities to intracellular cyclic AMP concentration (CHO cells stably expressing CCR1); type: cell-based, human
Method: By using CHO cells which stably express the chemokine receptor CCR1, the activity of the test compounds to intracellular cyclic AMP concentration had been studied.
The CHO cells was suspended in Locke's solution (pH 7.4:154 mM of sodium chloride, 5.6 mM of potassium chloride, 2 mM of calcium chloride, 1 mM of magnesium chloride, 0.1% glucose, 10 mM of Hepes and 0.3 mM of isobutylmethylxanthine), and preliminarily incubated at a temperature of 37° C. for 5 minutes, and 100 nM of hMIP-1 alpha and 0.01 mM of Forskolin were added thereto. The reaction was kept for 10 minutes and terminated by adding trichloroacetic acid. The reaction mixture was centrifuged at 15000 rpm for 5 minutes and supernatant was obtained. Trichloroacetic acid in the supernatant was removed by extraction with diethyl ether, and the supernatant was evaporated to dryness by centrifugal evaporator. The cyclic AMP concentration in the sample thus obtained was measured by cyclic AMP kit (produced by Amersham). The activity of test compounds to the cyclic AMP concentration was obtained by studying antagonism against hMIP-1 alpha by adding 0.01 mM of the test compounds 5 minutes before adding 100 nM of hMIP-1 alpha.

[5] = control reactions: 0.01 mM Forskolin solely, or with 100 nM hMIP-1 alpha, no test compound

Row | Molecule | IC50 [1] [nM] | IC50 [2] [nM] | inhibitory ratio (%) of increase in the concentration of intracellular calcium [3] [%] | cAMP concentration ([4]; 0.01 mM Forskolin + 100 nM hMIP-1 alpha + 0.01 mM test compound added 5 minutes before hMIP-1 alpha) | cAMP concentration [4, 5]
1 | O=C(NC1CCN(CC2=CCCCCCCC2)CC1)C1c2ccccc2Oc2ccccc21 [Example 61 (named cis for convenience)] | 1.7 | 1.8 | – | – | –
2 | CC[N+]1(CC2CCCCCCC2)CCC(NC(=O)C2c3cc(Br)ccc3Oc3ccc(Br)cc32)CC1 (single isomer, unassigned) [Example 26 (named cis for convenience), cis*-1-cyclooctylmethyl-1-ethyl-4-(2,7-dibromoxanthene-9-carboxamido)piperidinium iodide] | 2.7 | 1.9 | 51 | – | –
3 | CC[N+]1(CC2=CCCCCCC2)CCC(NC(=O)C2c3cc(Cl)ccc3Oc3ccc(Cl)cc32)CC1 (stereo not drawn) [Example 59 (named cis for convenience), cis*-1-(1-cyclooctenylmethyl)-1-ethyl-4-(2,7-dichloroxanthene-9-carboxamido)piperidinium iodide] | – | – | 97 | – | –
4 | C=C[C@@]1(C)CC(=O)[C@]2(O)[C@@]3(C)[C@@H](O)CCC(C)(C)[C@@H]3[C@H](O)[C@H](OC(C)=O)[C@@]2(C)O1 [Forskolin, reference compound] | – | – | – | – | 67.8 +/- 8.4 pmol/10^6 cells
5 | hMIP - 1 alpha: chemokine (polypeptidic leukocytic migration factor), agonist used at 100 nM (protein, UniProt P10147 24-92, looked up) C-C motif chemokine 3: SLAADTPTACCFSYTSRQIPQNFIADYFETSSQCSKPGVIFLTKRSRQVCADPSEEWVQKYVSDLELSA | – | – | – | – | 47.7 +/- 4.2 pmol/10^6 cells

Second part, led by results:

Row | IC50 [1] [nM] | IC50 [2] [nM] | Molecule | inhibitory ratio (%) of increase in the concentration of intracellular calcium [3] [%] | cAMP concentration ([4]; 0.01 mM Forskolin + 100 nM hMIP-1 alpha + 0.01 mM test compound added 5 minutes before hMIP-1 alpha) | cAMP concentration [4, 5]
6 | 40 | 5.2 | CC[N+]1(CC2CCCCCCC2)CCC(NC(=O)C2c3ccccc3Oc3ccccc32)CC1.[I-] (stereo not drawn) [Example 12, 1-cyclooctylmethyl-1-ethyl-4-(xanthene-9-carboxamido)piperidinium iodide] | – | 81.6 +/- 4.2 pmol/10^6 cells | –
7 | 13 | 3.9 | C[N+]1(CC2CCCCCCC2)CCC(NC(=O)C2c3cc(Br)ccc3Oc3ccc(Br)cc32)CC1 (stereo not drawn) [Example 22, 1-cyclooctylmethyl-1-methyl-4-(2,7-dibromoxanthene-9-carboxamido)piperidinium iodide] | – | – | –
8 | 0.74 | 1.8 | CC[N+]1(CC2=CCCCCCC2)CCC(NC(=O)C2c3cc(Cl)ccc3Oc3ccc(Cl)cc32)CC1 (stereo not drawn) [Example 62 (named cis for convenience), cis*-1-(1-cyclooctenylmethyl)-1-ethyl-4-(2,7-dichloroxanthene-9-carboxamido)piperidinium bromide] | – | – | –
